Results: paper PMC11831560, “Development of the Pyrido[2,3-d]pyrimidin-7(8H)-one Scaffold toward Potent and Selective NUAK1 Inhibitors” (ACS Medicinal Chemistry Letters, 2025)

How the values were obtained:
Test in all cases: Kinase panel radiometric filter binding (33P-ATP)
Assay type in all cases: biochemical
Parameters in all cases: dose or concentration left out as unconfirmed
[1] = target: DAPK1 (Homo sapiens, UniProt P53355)
Protocol: (§1) Table S4: AMPKA kinase activity data (ADP-Glo assay)
(§2) Compound pIC50 (Fold selectivity
(§3) Table S5. Kinase selectivity screening for 9 and 24 at 1 µM against a general kinase panel of 140 targets
(§4) in radiometric filter binding assay using 33P-γ−ATP at the MRC PPU International Centre for Kinase
(§5) Profiling, University of Dundee. pIC50 values were determined for compounds with <20% activity
(§6) Kinase activity s.d. pIC50 activity s.d. pIC50

[2] = target: BRSK1 (Homo sapiens, UniProt Q8TDC3)
Protocol: as §1, §2, §3, §4, §5, §6

[3] = target: p38a MAPK (Homo sapiens, UniProt Q16539)
Protocol: as §1, §2, §3, §4, §5, §6

[4] = target: TTBK2 (Homo sapiens, UniProt Q6IQ55)
Protocol: as §1, §2, §3, §4, §5, §6

[5] = target: PKCa (Homo sapiens, UniProt P17252)
Protocol: as §1, §2, §3, §4, §5, §6

[6] = target: CLK2 (Homo sapiens, UniProt P49760)
Protocol: as §1, §2, §3, §4, §5, §6

[7] = target: CK1δ (Homo sapiens, UniProt P48730)
Protocol: as §1, §2, §3, §4, §5, §6

[8] = target: BTK (Homo sapiens, UniProt Q06187)
Protocol: as §1, §2, §3, §4, §5, §6

[9] = target: LKB1 (Homo sapiens, UniProt Q15831)
Protocol: as §1, §2, §3, §4, §5, §6

[10] = target: RSK1 (Homo sapiens, UniProt Q15418)
Protocol: as §1, §2, §3, §4, §5, §6

[11] = target: CAMKKb (Homo sapiens, UniProt Q96RR4)
Protocol: as §1, §2, §3, §4, §5, §6

[12] = target: JNK2 (Homo sapiens, UniProt P45984)
Protocol: as §1, §2, §3, §4, §5, §6

[13] = target: HIPK3 (Homo sapiens, UniProt Q9H422)
Protocol: as §1, §2, §3, §4, §5, §6

[14] = target: MAPKAP-K3 (Homo sapiens, UniProt Q16644)
Sequence of MAPKAP-K3 (Q16644 whole entry): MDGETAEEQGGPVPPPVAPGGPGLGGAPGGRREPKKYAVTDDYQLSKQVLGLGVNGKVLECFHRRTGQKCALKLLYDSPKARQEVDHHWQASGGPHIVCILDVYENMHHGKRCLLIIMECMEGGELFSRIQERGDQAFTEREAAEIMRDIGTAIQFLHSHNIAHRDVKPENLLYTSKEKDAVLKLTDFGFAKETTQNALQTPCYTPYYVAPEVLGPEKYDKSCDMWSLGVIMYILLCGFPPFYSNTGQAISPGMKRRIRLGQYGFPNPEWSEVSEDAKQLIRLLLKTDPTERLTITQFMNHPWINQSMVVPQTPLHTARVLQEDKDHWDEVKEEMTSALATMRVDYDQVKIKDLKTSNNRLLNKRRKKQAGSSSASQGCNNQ
Protocol: as §1, §2, §3, §4, §5, §6

[15] = target: ULK1 (Homo sapiens, UniProt O75385)
Protocol: as §1, §2, §3, §4, §5, §6

[16] = target: NEK6 (Homo sapiens, UniProt Q9HC98)
Protocol: as §1, §2, §3, §4, §5, §6

[17] = target: RIPK2 (Homo sapiens, UniProt O43353)
Protocol: as §1, §2, §3, §4, §5, §6

[18] = target: CHK2 (Homo sapiens, UniProt O96017)
Sequence of CHK2 (O96017 whole entry): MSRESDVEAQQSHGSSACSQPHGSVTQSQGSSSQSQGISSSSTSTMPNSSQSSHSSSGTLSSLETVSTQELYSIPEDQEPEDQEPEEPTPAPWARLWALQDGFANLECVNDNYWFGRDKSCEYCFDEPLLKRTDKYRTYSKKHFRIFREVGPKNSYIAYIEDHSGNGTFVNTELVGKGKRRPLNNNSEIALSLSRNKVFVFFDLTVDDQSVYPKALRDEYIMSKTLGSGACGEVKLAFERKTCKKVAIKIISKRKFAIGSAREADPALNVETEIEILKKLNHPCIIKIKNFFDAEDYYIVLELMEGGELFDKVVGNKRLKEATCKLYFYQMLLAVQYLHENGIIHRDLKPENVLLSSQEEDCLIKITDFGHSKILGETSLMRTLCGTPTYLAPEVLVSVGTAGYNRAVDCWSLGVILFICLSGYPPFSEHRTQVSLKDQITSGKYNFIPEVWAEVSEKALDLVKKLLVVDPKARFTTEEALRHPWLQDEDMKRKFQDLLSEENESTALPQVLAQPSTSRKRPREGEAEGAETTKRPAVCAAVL
Protocol: as §1, §2, §3, §4, §5, §6

[19] = target: EPH-B3 (Homo sapiens, UniProt P54753)
Sequence of EPH-B3 (P54753 34-998): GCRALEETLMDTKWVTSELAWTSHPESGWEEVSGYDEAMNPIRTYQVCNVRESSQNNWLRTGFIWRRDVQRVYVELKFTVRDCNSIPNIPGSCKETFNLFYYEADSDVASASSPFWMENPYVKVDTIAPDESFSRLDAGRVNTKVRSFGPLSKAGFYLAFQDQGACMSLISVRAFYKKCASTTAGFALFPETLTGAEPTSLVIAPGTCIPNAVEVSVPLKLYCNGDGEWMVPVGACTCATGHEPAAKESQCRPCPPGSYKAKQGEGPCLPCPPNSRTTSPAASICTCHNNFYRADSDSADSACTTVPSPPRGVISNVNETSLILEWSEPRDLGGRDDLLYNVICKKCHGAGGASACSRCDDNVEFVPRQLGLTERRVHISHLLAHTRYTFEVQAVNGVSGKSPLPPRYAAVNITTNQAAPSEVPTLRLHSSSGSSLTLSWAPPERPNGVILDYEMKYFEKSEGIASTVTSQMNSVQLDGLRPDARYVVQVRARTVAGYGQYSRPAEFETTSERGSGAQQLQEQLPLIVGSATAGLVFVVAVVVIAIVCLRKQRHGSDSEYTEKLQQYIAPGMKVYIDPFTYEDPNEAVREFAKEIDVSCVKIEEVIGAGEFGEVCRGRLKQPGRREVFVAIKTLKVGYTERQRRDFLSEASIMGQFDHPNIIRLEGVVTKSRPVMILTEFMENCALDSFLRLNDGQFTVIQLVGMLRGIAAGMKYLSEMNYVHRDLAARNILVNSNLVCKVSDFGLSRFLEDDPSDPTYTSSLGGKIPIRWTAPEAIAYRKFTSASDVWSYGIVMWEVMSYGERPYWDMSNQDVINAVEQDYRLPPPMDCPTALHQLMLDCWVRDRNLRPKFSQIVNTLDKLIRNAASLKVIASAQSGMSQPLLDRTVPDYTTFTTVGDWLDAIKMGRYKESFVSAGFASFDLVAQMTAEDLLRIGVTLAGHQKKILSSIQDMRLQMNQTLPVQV
Protocol: as §1, §2, §3, §4, §5, §6

[20] = target: PKCz (Homo sapiens, UniProt Q05513)
Protocol: as §1, §2, §3, §4, §5, §6

[21] = target: IRAK1 (Homo sapiens, UniProt P51617)
Sequence of IRAK1 (P51617 whole entry): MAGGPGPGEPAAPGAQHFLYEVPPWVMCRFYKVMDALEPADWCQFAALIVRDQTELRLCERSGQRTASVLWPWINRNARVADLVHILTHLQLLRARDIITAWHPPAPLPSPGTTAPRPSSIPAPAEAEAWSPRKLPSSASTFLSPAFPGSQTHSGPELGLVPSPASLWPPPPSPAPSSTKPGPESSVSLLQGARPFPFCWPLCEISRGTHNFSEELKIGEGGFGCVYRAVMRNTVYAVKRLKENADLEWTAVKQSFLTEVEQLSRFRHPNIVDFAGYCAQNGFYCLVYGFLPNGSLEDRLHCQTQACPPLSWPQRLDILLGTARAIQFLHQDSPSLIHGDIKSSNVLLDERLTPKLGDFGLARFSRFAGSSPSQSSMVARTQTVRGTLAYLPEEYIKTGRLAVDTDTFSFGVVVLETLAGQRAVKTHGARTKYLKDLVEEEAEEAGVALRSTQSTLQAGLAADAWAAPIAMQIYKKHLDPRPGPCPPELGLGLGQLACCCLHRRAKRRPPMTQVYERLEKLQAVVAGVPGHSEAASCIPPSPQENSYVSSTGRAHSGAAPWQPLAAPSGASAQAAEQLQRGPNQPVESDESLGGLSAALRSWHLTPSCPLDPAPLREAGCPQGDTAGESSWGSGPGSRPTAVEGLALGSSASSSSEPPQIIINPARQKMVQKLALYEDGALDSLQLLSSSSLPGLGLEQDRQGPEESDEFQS
Protocol: as §1, §2, §3, §4, §5, §6

[22] = test system: PINK
Protocol: as §1, §2, §3, §4, §5, §6

[23] = target: EF2K (Homo sapiens, UniProt O00418)
Protocol: as §1, §2, §3, §4, §5, §6

[24] = target: ZAP70 (Homo sapiens, UniProt P43403)
Protocol: as §1, §2, §3, §4, §5, §6

[25] = target: DYRK3 (Homo sapiens, UniProt O43781)
Sequence of DYRK3 (O43781 whole entry): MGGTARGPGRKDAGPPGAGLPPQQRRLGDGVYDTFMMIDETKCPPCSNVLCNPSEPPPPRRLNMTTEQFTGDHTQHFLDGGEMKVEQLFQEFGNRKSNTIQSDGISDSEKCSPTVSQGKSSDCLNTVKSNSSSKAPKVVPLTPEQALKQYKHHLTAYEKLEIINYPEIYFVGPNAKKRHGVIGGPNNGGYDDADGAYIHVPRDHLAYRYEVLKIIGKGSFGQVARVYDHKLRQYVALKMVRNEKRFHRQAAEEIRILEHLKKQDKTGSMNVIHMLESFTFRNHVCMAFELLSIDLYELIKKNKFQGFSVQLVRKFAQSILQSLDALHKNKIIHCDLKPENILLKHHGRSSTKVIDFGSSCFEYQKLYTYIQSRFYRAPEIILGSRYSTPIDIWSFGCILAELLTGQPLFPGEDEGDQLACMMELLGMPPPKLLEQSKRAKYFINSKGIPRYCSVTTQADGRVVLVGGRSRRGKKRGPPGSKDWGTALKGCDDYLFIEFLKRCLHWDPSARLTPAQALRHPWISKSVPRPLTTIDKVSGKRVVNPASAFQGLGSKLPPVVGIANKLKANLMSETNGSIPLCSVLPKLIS
Protocol: as §1, §2, §3, §4, §5, §6

[26] = target: EPH-A2 (Homo sapiens, UniProt P29317)
Protocol: as §1, §2, §3, §4, §5, §6

[27] = target: CDK9-Cyclin T1 (Homo sapiens, UniProt P50750)
Protocol: as §1, §2, §3, §4, §5, §6

[28] = target: IRAK4 (Homo sapiens, UniProt Q9NWZ3)
Protocol: as §1, §2, §3, §4, §5, §6

[29] = target: PKD1 (Homo sapiens, UniProt Q15139)
Sequence of PKD1 (Q15139 whole entry): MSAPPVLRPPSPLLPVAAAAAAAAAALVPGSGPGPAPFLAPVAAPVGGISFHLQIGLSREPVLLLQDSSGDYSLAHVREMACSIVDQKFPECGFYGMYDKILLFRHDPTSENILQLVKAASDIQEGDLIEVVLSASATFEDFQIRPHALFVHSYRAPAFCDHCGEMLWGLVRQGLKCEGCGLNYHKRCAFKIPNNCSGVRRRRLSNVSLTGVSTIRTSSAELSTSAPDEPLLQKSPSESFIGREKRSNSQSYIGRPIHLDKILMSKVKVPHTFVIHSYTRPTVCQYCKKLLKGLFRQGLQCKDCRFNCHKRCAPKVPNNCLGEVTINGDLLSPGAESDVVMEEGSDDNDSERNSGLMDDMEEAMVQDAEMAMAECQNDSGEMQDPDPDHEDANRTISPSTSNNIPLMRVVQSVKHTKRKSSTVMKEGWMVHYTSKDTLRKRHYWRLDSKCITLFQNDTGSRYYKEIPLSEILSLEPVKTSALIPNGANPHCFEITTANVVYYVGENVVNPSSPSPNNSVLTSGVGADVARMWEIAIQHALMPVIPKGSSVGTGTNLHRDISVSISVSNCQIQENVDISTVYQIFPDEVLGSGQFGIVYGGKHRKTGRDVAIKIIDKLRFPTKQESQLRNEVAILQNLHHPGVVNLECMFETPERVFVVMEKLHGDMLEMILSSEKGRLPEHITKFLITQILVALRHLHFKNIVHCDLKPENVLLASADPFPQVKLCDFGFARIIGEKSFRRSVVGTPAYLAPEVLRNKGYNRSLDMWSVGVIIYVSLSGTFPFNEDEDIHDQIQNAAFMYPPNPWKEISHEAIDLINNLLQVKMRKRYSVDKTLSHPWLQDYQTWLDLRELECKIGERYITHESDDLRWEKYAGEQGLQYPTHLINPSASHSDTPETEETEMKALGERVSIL
Protocol: as §1, §2, §3, §4, §5, §6

[30] = target: p38d MAPK (Homo sapiens, UniProt O15264)
Sequence of p38d MAPK (O15264 whole entry): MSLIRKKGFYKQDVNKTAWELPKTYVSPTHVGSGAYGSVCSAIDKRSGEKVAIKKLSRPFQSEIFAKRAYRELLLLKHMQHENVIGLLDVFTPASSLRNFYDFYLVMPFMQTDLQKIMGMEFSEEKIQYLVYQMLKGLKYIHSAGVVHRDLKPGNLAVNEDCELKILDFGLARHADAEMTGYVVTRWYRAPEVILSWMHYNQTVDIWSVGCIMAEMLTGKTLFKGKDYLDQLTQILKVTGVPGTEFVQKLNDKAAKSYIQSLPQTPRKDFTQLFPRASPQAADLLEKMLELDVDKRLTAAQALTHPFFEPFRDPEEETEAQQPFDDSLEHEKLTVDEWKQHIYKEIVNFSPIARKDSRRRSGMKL
Protocol: as §1, §2, §3, §4, §5, §6

[31] = target: BRK (Homo sapiens, UniProt Q13882)
Protocol: as §1, §2, §3, §4, §5, §6

[32] = target: MSK1 (Homo sapiens, UniProt O75582)
Protocol: as §1, §2, §3, §4, §5, §6

[33] = target: PIM1 (Homo sapiens, UniProt P11309)
Protocol: as §1, §2, §3, §4, §5, §6

[34] = target: MKK2 (Homo sapiens, UniProt P36507)
Sequence of MKK2 (P36507 whole entry): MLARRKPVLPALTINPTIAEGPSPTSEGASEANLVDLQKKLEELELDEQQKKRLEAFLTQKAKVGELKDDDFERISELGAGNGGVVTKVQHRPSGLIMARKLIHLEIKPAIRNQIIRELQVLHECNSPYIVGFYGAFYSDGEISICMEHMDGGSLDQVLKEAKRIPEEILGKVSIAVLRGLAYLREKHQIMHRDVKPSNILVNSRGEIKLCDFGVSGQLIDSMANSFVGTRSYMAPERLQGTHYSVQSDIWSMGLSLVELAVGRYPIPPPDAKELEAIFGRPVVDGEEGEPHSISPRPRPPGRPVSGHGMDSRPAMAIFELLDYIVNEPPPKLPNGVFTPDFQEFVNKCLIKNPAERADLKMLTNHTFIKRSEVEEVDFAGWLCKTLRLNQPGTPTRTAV
Protocol: as §1, §2, §3, §4, §5, §6

[35] = target: PDGFRA (Homo sapiens, UniProt P16234)
Protocol: as §1, §2, §3, §4, §5, §6

SMILES	% activity remaining [1]	% activity remaining [2]	% activity remaining [3]	% activity remaining [4]	% activity remaining [5]	% activity remaining [6]	% activity remaining [7]	% activity remaining [8]	% activity remaining [9]	% activity remaining [10]	% activity remaining [11]	% activity remaining [12]	% activity remaining [13]	% activity remaining [14]	% activity remaining [15]	% activity remaining [16]	% activity remaining [17]	% activity remaining [18]	% activity remaining [19]	% activity remaining [20]	also measured
Cc1cc(=O)n(C2CCCC2)c2nc(Nc3ccc(N4CC5CC(C4)N5C)cc3)ncc12 [Compound 9]	60%	81%	92%	97%	86%	23%	66%	91%	104%	41%	86%	35%	112%	84%	23%	105%	78%	72%	95%	110%	% activity remaining [21]: 75%; % activity remaining [22]: 96%; % activity remaining [23]: 72%; % activity remaining [24]: 94%; % activity remaining [25]: 74%; % activity remaining [26]: 77%; % activity remaining [27]: 67%; % activity remaining [28]: 100%; % activity remaining [29]: 20%; % activity remaining [30]: 94%; % activity remaining [31]: 67%; % activity remaining [32]: 61%; % activity remaining [33]: 90%; % activity remaining [34]: 94%; % activity remaining [35]: 57%
CN1C2CC1CN(c1ccc(Nc3ncc4ccn(CC5CCOCC5)c4n3)cc1)C2 [Compound 24]	125%	75%	93%	96%	96%	90%	93%	82%	100%	74%	43%	88%	73%	109%	77%	98%	73%	98%	77%	118%	% activity remaining [21]: 71%; % activity remaining [22]: 99%; % activity remaining [23]: 102%; % activity remaining [24]: 95%; % activity remaining [25]: 65%; % activity remaining [26]: 76%; % activity remaining [27]: 56%; % activity remaining [28]: 71%; % activity remaining [29]: 54%; % activity remaining [30]: 110%; % activity remaining [31]: 58%; % activity remaining [32]: 84%; % activity remaining [33]: 84%; % activity remaining [34]: 91%; % activity remaining [35]: 90%
